Results on 8 molecules are retold here after patent publication US11878965B2, “Inhibitors of peptidylarginine deiminases” (Gilead Sciences, Inc., priority 2020, dated 2024).

Structures are written as SMILES.

As usually defined, the IC50 is the concentration at which inhibition is half-maximal.

The target of this assay is human PAD4 (Homo sapiens (Human), UniProt Q9UM07). The assay can be described thus: In Vitro PAD4 BAEE Biochemical Assay. Particulars: geometric mean of multiple experiments. The procedure: The PCR product was ligated into linearized pET-SUMO vector (Invitrogen, Carlsbad, CA), which is part of the Champion™ pET SUMO Protein Expression System. After sequence verification for the correct orientation, the pET-SUMO-hPAD4 expression plasmid was transformed into BL21(DE3) cells.
human PAD4, sequence (Q9UM07 2-663): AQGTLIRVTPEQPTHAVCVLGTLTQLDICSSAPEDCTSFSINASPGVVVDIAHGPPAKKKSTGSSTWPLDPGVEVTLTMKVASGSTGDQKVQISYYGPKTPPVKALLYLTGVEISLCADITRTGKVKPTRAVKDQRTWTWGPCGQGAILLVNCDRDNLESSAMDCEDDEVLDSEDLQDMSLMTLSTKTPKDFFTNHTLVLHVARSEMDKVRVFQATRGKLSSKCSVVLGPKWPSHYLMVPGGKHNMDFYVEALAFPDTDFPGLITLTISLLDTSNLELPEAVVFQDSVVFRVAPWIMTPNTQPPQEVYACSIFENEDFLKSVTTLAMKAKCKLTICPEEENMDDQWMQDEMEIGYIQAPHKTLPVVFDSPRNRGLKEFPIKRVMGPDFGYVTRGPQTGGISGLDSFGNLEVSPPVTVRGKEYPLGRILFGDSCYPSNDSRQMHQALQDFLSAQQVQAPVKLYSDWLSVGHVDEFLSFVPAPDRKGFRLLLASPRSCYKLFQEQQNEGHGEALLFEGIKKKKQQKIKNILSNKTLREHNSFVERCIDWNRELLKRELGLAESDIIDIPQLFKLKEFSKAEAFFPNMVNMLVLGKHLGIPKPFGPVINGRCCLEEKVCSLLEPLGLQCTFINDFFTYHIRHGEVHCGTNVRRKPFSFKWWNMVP
E. Coli BL21(DE3) cells were inoculated in LB medium with kanamycin at 37° C. until A600 nm reached about 0.5. Protein expression was induced by addition of 0.5 mM IPTG (final) and continued overnight at 16° C. at 220 rpm.
Cells were harvested by centrifugation at 5000 rpm for 10 minutes at 4° C. The pellet was resuspended in 300 ml lysis buffer (20 mM Tris-HCl, pH 8.0, 1 mM EDTA, 500 mM NaCl, 1 mM (tris(2-carboxyethyl)phosphine) (TCEP), 10% glycerol, and 1% Triton X100 and EDTA free protease inhibitor) and lysed by 3× passage through a microfluidizer (Microfluidics, Newton, MA) at 18,000 psi. The cell lysate was clarified by centrifugation at 30,000 rpm for 60 minutes at 4° C. The supernatant was applied to a 5 ml Ni-HP (GE HealthCare Cat #17524701) column preequilibrated in Ni-A buffer (20 mM Tris-HCl, pH 8.0, 20 mM Imidazole, 1 mM TCEP, 10% glycerol, and 400 mM NaCl). Bound protein was eluted with a 0-100% linear gradient of 100 mL Ni-B buffer (Ni A buffer+0.5 M Imidazole).
The His-Sumo tag was cleaved using sumo protease (Thermo Fisher Cat #: 12588018) while dialyzing in buffer (20 mM Tris-HCl, pH 8.0, 1 mM EDTA, 500 mM NaCl, 1 mM TCEP, 10% glycerol). The protein was then reloaded onto a Ni-HP column for a reverse purification step and recovered in flow through fraction. The protein with His-Sumo tag removed was then polished using a 16/60 Superdex-200 gel filtration column with gel filtration buffer (20 mM Tris pH 8.0, NaCl 400 mM and 1 mM TCEP). The fractions containing the protein were pulled and frozen at −80° C.
In Vitro PAD4 BAEE Biochemical Assay
The enzymatic activity of human PAD4 was monitored in a biochemical assay in the presence or absence of compounds using the small peptidyl arginine mimic BAEE (Nα-Benzoyl-L-arginine ethyl ester hydrochloride) as substrate. PAD4 activity led to deimination of BAEE and release of ammonia. Levels of ammonia were monitored by using an amine coupling reaction and were indicative of PAD4 enzymatic activity.
One hundred nanoliters of test compounds dissolved in DMSO at various concentrations were dispensed into a 384-well black OptiPlate using a Labcyte Echo instrument. Ten microliters of a solution of recombinant PAD4 and calcium chloride diluted in PAD4 assay buffer (50 mM MOPS [3-(N-morpholino) propanesulfonic acid], pH 7.6; 50 mM sodium chloride; 0.05% Tween-20; 2 mM dithiothreitol) was added to the compound-containing plate and was incubated for 30 minutes at 25° C. Ten microliters of a solution of BAEE (Sigma-Aldrich #B4500) diluted in PAD4 assay buffer was then added to start the reaction. Final concentrations were 5 nM PAD4, 2 mM calcium chloride, and 3 mM BAEE. The reaction mixture was incubated at 25° C. for 2 hours and was stopped with the addition of 10 microliters of a solution of 75 mM EDTA (Ethylenediaminetetraacetic acid) in PAD4 assay buffer. Thirty microliters of detection solution (5 mM o-phthalaldehyde, 50 mM MOPS [3-(N-morpholino) propanesulfonic acid], pH 7.6; 50 mM sodium chloride; 0.05% Tween-20; 5 mM dithiothreitol) was then added and the reaction was incubated for 1 hour at 25° C. The level of fluorescent thiol-substituted isoindole resulting from the reaction of ammonia, o-phthalaldehyde, and dithiothreitol was measured on an Envision plate reader (PerkinElmer) with 405 nm excitation and 535 nm emission.

Where [1] appears, read: human PAD4, BAEE substrate, 5 nM PAD4, 2 mM calcium chloride, 3 mM BAEE.

On to `COC(=O)Nc1ccc2cc(-c3nc4cc(C(=O)N5CCC[C@@H](N)C5)cc(OC)c4n3C)n(CC3CC3)c2n1` [Example 108, (R)-methyl (2-(5-(3-aminopiperidine-1-carbonyl)-7-methoxy-1-methyl-1H-benzo[d]imidazol-2-yl)-1-(cyclopropylmethyl)-1H-pyrrolo[2,3-b]pyridin-6-yl)carbamate], for which the IC50 under setting [1] was 5760 nM.

On to `COc1cc(C(=O)N2C[C@H](N)CCN2C)cc2nc(-c3cc4ccc([C@@H](C)NC(=O)c5ccccc5C(F)(F)F)nc4n3CC3CC3)n(C)c12` [Example 196, N-((R)-1-(2-(5-((R)-5-amino-2-methylhexahydropyridazine-1-carbonyl)-7-methoxy-1-methyl-1H-benzo[d]imidazol-2-yl)-1-(cyclopropylmethyl)-1H-pyrrolo[2,3-b]pyridin-6-yl)ethyl)-2-(trifluoromethyl)benzamide], for which the IC50 under setting [1] was 129 nM.

Consider `COc1cc(C(=O)N2C[C@H](N)CCN2C)cc2nc(-c3cc4ccc(C(C)(C)O)nc4n3CC3CC3)n(C)c12` [Example 249, (R)-(5-amino-2-methyltetrahydropyridazin-1(2H)-yl)(2-(1-(cyclopropylmethyl)-6-(2-hydroxypropan-2-yl)-1H-pyrrolo[2,3-b]pyridin-2-yl)-7-methoxy-1-methyl-1H-benzo[d]imidazol-5-yl)methanone], for which, under setting [1], the IC50 was 227 nM.

Take `COc1cc(C(=O)N2C[C@H](N)[C@@H]3CC[C@H]2C3)cc2nc(-c3cc4ccc([C@@H](C)NC(=O)c5cccc(C(F)F)n5)nc4n3CC3CC3)n(C)c12` [Example 307, N-((R)-1-(2-(5-((1S,4R,5R)-4-amino-2-azabicyclo[3.2.1]octane-2-carbonyl)-7-methoxy-1-methyl-1H-benzo[d]imidazol-2-yl)-1-(cyclopropylmethyl)-1H-pyrrolo[2,3-b]pyridin-6-yl)ethyl)-6-(difluoromethyl) picolinamide]: the IC50 (recombinant PAD4 5 nM, 2 mM calcium chloride, 3 mM BAEE substrate) was determined as 382 nM.

Take `COc1cc(C(=O)N2CCC[C@@H](N)C2)cc2nc(-c3cc4ccc(S(=O)(=O)C(C)C)nc4n3CC3CC3)n(C)c12` [Example 254, (R)-(3-aminopiperidin-1-yl)(2-(1-(cyclopropylmethyl)-6-(isopropylsulfonyl)-1H-pyrrolo[2,3-b]pyridin-2-yl)-7-methoxy-1-methyl-1H-benzo[d]imidazol-5-yl)methanone]: the IC50 under setting [1] was found to be 550 nM.

For the molecule `COc1cc(C(=O)N2[C@H]3CC[C@@H]2[C@H](N)C3)cc2nc(-c3cc4ccc([C@@H](C)NC(C)=O)nc4n3CC3CC3)n(C3CC3)c12` [Example 131, N-((R)-1-(2-(5-((1R,2R,4S)-2-amino-7-azabicyclo[2.2.1]heptane-7-carbonyl)-1-cyclopropyl-7-methoxy-1H-benzo[d]imidazol-2-yl)-1-(cyclopropylmethyl)-1H-pyrrolo[2,3-b]pyridin-6-yl)ethyl)acetamide], the IC50 under setting [1] is 25.9 nM.

On to `COc1cc(C(=O)N2C[C@H](N)CC[C@@H]2C)cc2nc(-c3cc4ccc(N(C(F)F)S(C)(=O)=O)nc4n3CC3CC3)n(C3CC3)c12` [Example 42, N-(2-(5-((2S,5R)-5-amino-2-methylpiperidine-1-carbonyl)-1-cyclopropyl-7-methoxy-1H-benzo[d]imidazol-2-yl)-1-(cyclopropylmethyl)-1H-pyrrolo [2,3-b]pyridin-6-yl)-N-(difluoromethyl) methanesulfonamide], for which the IC50 under setting [1] amounted to 221 nM.

Regarding `COc1cc(C(=O)N2C[C@H](N)CCN2C)cc2nc(-c3cc4ccc([C@@H](C)NC(=O)C5CC(F)(F)C5)nc4n3CC3CC3)n(C)c12` [Example 162, N-((R)-1-(2-(5-((R)-5-amino-2-methylhexahydropyridazine-1-carbonyl)-7-methoxy-1-methyl-1H-benzo[d]imidazol-2-yl)-1-(cyclopropylmethyl)-1H-pyrrolo[2,3-b]pyridin-6-yl)ethyl)-3,3-difluorocyclobutane-1-carboxamide], the IC50 under setting [1] was 92.1 nM.
